Reference: PMC8348310, “Antioxidants Isolated from Elaeagnus umbellata (Thunb.) Protect against Bacterial Infections and Diabetes in Streptozotocin-Induced Diabetic Rat Model” (Molecules, 2021)
Values after ≈ are worked out from the molar mass of the structure shown. Values belong to the compound of their own block, whether it stands above or below them.

Tests used:
Bacillus cereus = assay: Broth dilution MIC determination; assay type: cell-based; details: 37 °C, 24 h, read-out: Minimum Inhibitory Concentrations
Method: (§1) Antibacterial potential of isolated compound was investigated against both Gram-positive and Gram-negative bacterial strains; Escherichia coli, Bacillus cereus, Salmonella typhi, Klebsiella pneumonia, Pseudomonas aeruginosa and Proteus mirabilis. Bacterial strains were provided by the Department of Pharmacy, University of Malakand, Khyber Pakhtunkhwa, Pakistan, and were kept at 4 °C in agar slants in freeze-dried condition until further use.
(§2) Both Gram-positive and Gram-negative bacterial strains Escherichia coli, Bacillus cereus, Salmonella typhi, Klebsiella pneumonia, Pseudomonas aeruginosa and Proteus mirabilis organism viable count per mL in the stock suspension was determined using surface viable counting technique. About 10^8–10^9 colony-forming units (CFU) per mL were used as inoculum in subsequent experiments. A fresh stock suspension was used each time.
(§3) Minimum inhibitory concentrations (MICs) of morin, phloroglucinol, and 1-hexyl benzene were determined using broth dilution method, following the Clinical and Laboratory Standards Institute (CLSI) guidelines. Stock solutions of morin, phloroglucinol, and 1-hexyl benzene were prepared in dimethylsulphoxide (DMSO). The serial dilutions from the stock solution were made ranging from 500 to 3.90 μg/mL using Mueller–Hinton broth. Sterile centrifuge tubes were arranged in sets of rows for each bacterial inoculum to cover the different concentration of isolated compounds in triplicate. The standard bacterial stock suspension 10^8–10^9 CFU/mL, in 100 μL were inoculated into each tube. A sterility control tube and a growth control tube were also incubated (for each strain). The tubes were incubated at 37 °C for 24 h. After incubation, 40 μL of a 0.4 mg/mL solution of para iodonitrotetrazolium (INT) chloride was added to each tube as an indicator of microbial growth. […] The evaluation for the inhibition of microbial growth was based on the color change of INT to pink, while no color change indicates the absence of growth. The MIC is the lowest concentration of the compounds at which there is no visible growth in the tubes. The concentration that inhibited bacterial growth completely (the first clear tube) was taken as the MIC value. Experiments were performed in triplicate and mean values are presented.
(§4) In order to, determine the sensitivity of the bacterial strains, positive control experiments were conducted, taking ampicillin at a starting concentration of 0.10 mg/mL in sterile water while the final concentrations for these experiments ranged from 25.00 to 0.19 μg/mL. A negative control experiment was conducted using only DMSO.

Escherichia coli = assay: Broth dilution MIC determination; assay type: cell-based; details: 37 °C, 24 h, read-out: Minimum Inhibitory Concentrations
Method: as §1, §2, §3, §4

Klebsiella pneumonia = assay: Broth dilution MIC determination; assay type: cell-based; details: Klebsiella pneumoniae, 37 °C, 24 h, read-out: Minimum Inhibitory Concentrations
Method: as §1, §2, §3, §4

Proteus mirabilis = assay: Broth dilution MIC determination; assay type: cell-based; details: 37 °C, 24 h, read-out: Minimum Inhibitory Concentrations
Method: as §1, §2, §3, §4

Pseudomonas aeruginosa = assay: Broth dilution MIC determination; assay type: cell-based; details: 37 °C, 24 h, read-out: Minimum Inhibitory Concentrations
Method: as §1, §2, §3, §4

Salmonella typhi = assay: Broth dilution MIC determination; assay type: cell-based; details: Salmonella enterica, 24 h, read-out: Minimum Inhibitory Concentrations
Staphylococcus aureus = assay: Broth dilution MIC determination; assay type: cell-based; details: 37 °C, 24 h, read-out: Minimum Inhibitory Concentrations
Method: as §3, with “Stock” for “Minimum inhibitory concentrations (MICs) of morin, phloroglucinol, and 1-hexyl benzene were determined using broth dilution method, following the Clinical and Laboratory Standards Institute (CLSI) guidelines. Stock”, “The serial dilutions from the stock solution were made ranging from 500 to 3.90 μg/mL using Mueller–Hinton broth.” left out, “The standard bacterial stock suspension 10^8–10^9 CFU/mL, in 100 μL were inoculated into each tube.” left out, “presented. […] A negative control experiment was conducted using only DMSO.” for “presented.”

[1] = DPPH free radical scavenging assay; assay type: biochemical
Method: According to the Brand-Williams assay DPPH (2, 2-diphenyl-1-picrylhydrazyl) free radical scavenging activity of morin was determined. DPPH and compounds stock solutions (1 mg/mL) were prepared in 100 mL methanol with serial dilutions of […], 62.5, 250, 500, and 1000 µg/mL. After that, 0.1 mL morin was mixed with 3.0 mL DPPH solution and incubated at 23 °C for 30 min. Standard ascorbic acid solution was also prepared in the same way using as a positive control. Finally, absorbance was measured at 517 nm via UV spectrophotometer. Results were taken in a set of three experiments and represented as mean ± SEM. Percent free radicals scavenging potential was calculated according to the following Equation (1): (1) % Free radicals Scavenging potential = Blank sample absorbance−sample absorbance/Blank sample absorbance×100
(§5) All the in vitro and in vivo experiments were analyzed in three replicates and determined as mean ± SEM. Student’s t-test and one way ANOVA followed by Dunnett’s post hoc multiple comparison test was used. p ≤ 0.05 were considered as significant. Linear regression analysis was used to calculate the IC50 value for % DPPH, ABTS, α-amylase, and α-glucosidase inhibition against the different concentrations of the test samples by means of Excel program 2007.

[2] = ABTS free radical scavenging assay; assay type: biochemical
Method: ABTS (2,2′-azinobis-3-ethylbenzothiazoline-6-sulfonic acid) free radicals inhibition potential were determined according to the reported assay. ABTS solution was prepared in methanol (100 mL). In total, 300 µL of compound (morin, phloroglucinol, and 1-hexyl benzene) was mixed thoroughly with 3.0 mL ABTS solution and incubated for six minutes. Finally, the absorbance was measured through UV spectrophotometer using ascorbic acid as positive control. Percent ABTS free radicals scavenging potential was calculated using the equation No. 1.
as §5

[3] = DPPH free radical scavenging assay; assay type: biochemical; details: 125 µg/mL
[4] = 1000 µg/mL, listed as ascorbic acid
[5] = linear regression of % scavenging vs concentration

SMILES: CC1(C)S[C@@H]2[C@H](NC(=O)[C@H](N)c3ccccc3)C(=O)N2[C@H]1C(=O)O [Ampicillin, ampicillin, reference compound]
MIC (Bacillus cereus): 1.6 µg/mL (≈ 4.58 µM) | MIC (Escherichia coli): 1 ± 0.1 µg/mL (≈ 2.86 µM) | MIC (Klebsiella pneumonia): 1.9 ± 1.2 µg/mL (≈ 5.44 µM) | MIC (Proteus mirabilis): 1.9 ± 1.1 µg/mL (≈ 5.44 µM) | MIC (Pseudomonas aeruginosa): 1.2 ± 0.5 µg/mL (≈ 3.43 µM) | MIC (Salmonella typhi): 1.8 ± 0.1 µg/mL (≈ 5.15 µM) | MIC (Staphylococcus aureus): 1.4 ± 0.5 µg/mL (≈ 4.01 µM)

DPPH IC50 [1, 5]: 29 µg/mL | ABTS IC50 [2, 5]: 32 µg/mL
SMILES: O=C1O[C@H]([C@@H](O)CO)C(O)=C1O [Ascorbic acid, ascorbic acid, reference compound]
% DPPH Scavenging Mean ± SEM ([1]; 31.05 µg/mL): 69 ± 0.4% | % DPPH Scavenging Mean ± SEM ([1]; 62.5 µg/mL): 73 ± 0.5% | % DPPH Scavenging Mean ± SEM ([1]; 250 µg/mL): 80 ± 0.4% | % DPPH Scavenging Mean ± SEM ([1]; 500 µg/mL): 86 ± 1.0% | % DPPH Scavenging Mean ± SEM ([1]; 1000 µg/mL): 91 ± 0.5% | % DPPH Scavenging Mean ± SEM [1, 4]: 86 ± 0.5% | % ABTS Scavenging Mean ± SEM ([2]; 31.05 µg/mL): 56 ± 1.1% | % ABTS Scavenging Mean ± SEM ([2]; 62.5 µg/mL): 64 ± 1.0% | % ABTS Scavenging Mean ± SEM ([2]; 125 µg/mL): 70 ± 0.5% | % ABTS Scavenging Mean ± SEM ([2]; 250 µg/mL): 78 ± 0.5% | % ABTS Scavenging Mean ± SEM ([2]; 500 µg/mL): 84 ± 1.1% | % ABTS Scavenging Mean ± SEM ([2]; 1000 µg/mL): 90 ± 0.5% | % ABTS Scavenging Mean ± SEM [2, 4]: 85 ± 0.5% | % DPPH Scavenging Mean ± SEM [3]: 77 ± 0.4%
